One assay relates to M. smegmatis cells, ΔpH. The assay is classed as cell-based, Mycobacterium smegmatis.
Assay [1] concerns the target M. smegmatis MenA (MsMenA) (Mycolicibacterium smegmatis, UniProt A0QR52). The note with it: read-out: MenA IC50; same assay as used here; cited from earlier work.
The test system of the next assay is E. coli IMVs, ΔpH. The assay is described as follows: ΔpH collapse in E. coli inverted membrane vesicles. The note with it: qualitative. The assay is classed as biochemical, Escherichia coli.
Another assay concerns M. tuberculosis. The assay is described as follows: microbe, parasite or virus in culture. The format is cell-based, Mycobacterium tuberculosis. The note with it: for MIC: Mycobacterium tuberculosis, read-out: Mt MIC.
Assay [2] relates to S. aureus (MRSA USA300 strain). The experiment in a line: microbe, parasite or virus in culture. The assay is classed as cell-based. The note with it: Staphylococcus aureus, MRSA|USA300, read-out: Sa MIC, MRSA USA300 strain.
In another assay the test system is B. subtilis. The assay is described as follows: microbe, parasite or virus in culture. The format is cell-based. The note with it: Bacillus subtilis.
The subject of another assay is E. coli. The assay is described as follows: microbe, parasite or virus in culture. The format is cell-based. The note with it: Escherichia coli.
The test system of a further assay is S. cerevisiae. The assay is described as follows: microbe, parasite or virus in culture. The format is cell-based, Saccharomyces cerevisiae. The note with it: for IC50: Saccharomyces cerevisiae.
Another assay concerns C. albicans. The assay is described as follows: microbe, parasite or virus in culture. The format is cell-based. The note with it: Candida albicans.
In the next assay the test system is MCF-7. The assay is described as follows: cells. The assay is classed as cell-based. The note with it: Homo sapiens, MCF7, read-out: MCF-7 IC50.
The next assay deals with T1, SaCrtM (Staphylococcus aureus, UniProt A9JQL9).
T1 sequence (A9JQL9 1-287): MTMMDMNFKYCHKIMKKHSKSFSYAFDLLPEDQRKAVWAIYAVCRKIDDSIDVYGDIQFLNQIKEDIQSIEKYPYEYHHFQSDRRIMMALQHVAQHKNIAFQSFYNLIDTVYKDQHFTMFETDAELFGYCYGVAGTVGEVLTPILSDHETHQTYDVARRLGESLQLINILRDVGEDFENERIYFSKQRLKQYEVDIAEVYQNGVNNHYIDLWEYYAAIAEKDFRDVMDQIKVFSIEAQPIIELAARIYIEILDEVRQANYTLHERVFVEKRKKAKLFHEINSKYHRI
The assay is described as follows: SaCrtM inhibition. The note with it: SaCrtM, weak activity. The assay is classed as biochemical, S. aureus.

Another assay concerns the target T2, human SQS (Homo sapiens, UniProt P37268).
T2 sequence (P37268 1-417): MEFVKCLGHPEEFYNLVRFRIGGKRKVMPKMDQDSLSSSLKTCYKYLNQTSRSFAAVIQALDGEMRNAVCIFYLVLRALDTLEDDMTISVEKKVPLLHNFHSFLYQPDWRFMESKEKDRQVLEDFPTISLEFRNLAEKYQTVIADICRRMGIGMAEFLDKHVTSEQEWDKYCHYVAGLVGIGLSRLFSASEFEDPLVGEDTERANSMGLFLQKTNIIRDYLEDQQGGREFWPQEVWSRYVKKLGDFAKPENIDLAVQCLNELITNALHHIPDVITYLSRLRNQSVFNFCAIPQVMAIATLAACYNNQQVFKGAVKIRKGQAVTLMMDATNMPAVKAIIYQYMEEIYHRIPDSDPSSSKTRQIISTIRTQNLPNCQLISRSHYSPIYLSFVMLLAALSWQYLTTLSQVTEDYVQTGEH
The assay is described as follows: Human SQS inhibition. The note with it: human SQS, weak activity. The format is biochemical.

The mark [3] stands for this setting: read-out: Bs IC50 (in parentheses).
The mark [4] stands for this setting: read-out: Sc IC50 (in parentheses).
[5] abbreviates: read-out: Ca IC50 (in parentheses).
The mark [6] stands for this setting: read-out: Ec IC50 (in parentheses).

≈ marks a conversion by molar mass, not a printed value. Like-named read-outs stand apart in the source and are kept apart here.

M. smegmatis MenA (MsMenA), sequence (A0QR52 1-289): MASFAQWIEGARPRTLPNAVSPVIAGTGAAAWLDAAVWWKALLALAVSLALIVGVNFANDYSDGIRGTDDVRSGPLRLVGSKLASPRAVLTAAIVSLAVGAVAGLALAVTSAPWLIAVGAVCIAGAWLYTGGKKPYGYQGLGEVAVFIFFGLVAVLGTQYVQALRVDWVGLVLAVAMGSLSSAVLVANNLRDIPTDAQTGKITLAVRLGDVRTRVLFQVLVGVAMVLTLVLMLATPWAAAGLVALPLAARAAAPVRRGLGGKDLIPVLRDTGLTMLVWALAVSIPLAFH

Consider `N#CC(C#N)=NNc1cccc(Cl)c1` [CCCP, m-chlorophenylcarbonyl cyanide phenylhydrazone], for which the “effect on pH gradient (ΔpH)” value with M. smegmatis cells, ΔpH was “collapsed”.
The term IC50 denotes the point on the concentration scale where inhibition reaches its midpoint. On to `C=CCN(C)CCCCCCOc1ccc(C(=O)c2ccc(Br)cc2)c(F)c1` [Ro 48-8071], for which the IC50 in assay [1] was 9 µM.
As to `CC(C)(C)c1cc(C=C(C#N)C#N)cc(C(C)(C)C)c1O` [SF6847, reference compound], the “effect on ΔpH” value with E. coli IMVs, ΔpH is given as “very rapid (seconds) collapse in ΔpH”.
For `CC(C)=CCC/C(C)=C/COCCNC1C2CC3CC(C2)CC1C3` (stereo not drawn) [compound 4], the “Mt MIC” value in the assay on M. tuberculosis amounted to 0.19 µg/mL. Also, the MIC in the assay on M. tuberculosis is approximately 0.2 µg/mL (≈ 0.603 µM); in [2], more than 120 µg/mL. In addition, the IC50 with B. subtilis (read-out: Bs IC50) was more than 66 µg/mL; with B. subtilis (setting [3]) it was more than 199 µM; in the assay on E. coli (read-out: Ec IC50), 4.3 µg/mL; in the assay with S. cerevisiae (read-out: Sc IC50), more than 33 µg/mL; with S. cerevisiae (setting [4]), more than 100 µM; with C. albicans (read-out: Ca IC50) it was more than 66 µg/mL. Also, the IC50 is more than 199 µM with C. albicans (setting [5]) and 112 µg/mL (≈ 338 µM) with MCF-7. For the same compound, the activity at SaCrtM and at human SQS was approximately 100 µM each time.
Consider `CC(C)=CCC/C(C)=C/COCCOC1C2CC3CC(C2)CC1C3` (stereo not drawn) [compound 5], for which the MIC in [2] is more than 64 µg/mL. The IC50 in the assay with B. subtilis (read-out: Bs IC50) was more than 66 µg/mL; with B. subtilis (setting [3]), more than 199 µM; in the assay with E. coli (read-out: Ec IC50), more than 332 µg/mL; in the assay with E. coli (setting [6]), more than 1000 µM; in the assay on S. cerevisiae (read-out: Sc IC50) it was more than 332 µg/mL; in the assay on S. cerevisiae (setting [4]) it was more than 1000 µM. Also, the values for the IC50 in the assay with C. albicans (read-out: Ca IC50), in the assay on C. albicans (setting [5]) and in the assay with MCF-7 were more than 66 µg/mL, more than 198 µM and 73 µg/mL (≈ 220 µM), respectively. Further, in the assay with E. coli IMVs, ΔpH, the “effect on ΔpH” value was “no effect”.
In the case of `CC(C)=CCC/C(C)=C/CNCCCOC1C2CC3CC(C2)CC1C3` (stereo not drawn) [compound 6], the results for the MIC (in the assay on M. tuberculosis; in [2]) were 1.6 µg/mL (≈ 4.63 µM) and approximately 8 µg/mL (≈ 23.2 µM), respectively. In addition, the IC50 in the assay with B. subtilis (read-out: Bs IC50) worked out at 3 µg/mL; with E. coli (read-out: Ec IC50), 2.3 µg/mL; in the assay with S. cerevisiae (read-out: Sc IC50), 2.7 µg/mL; in the assay with C. albicans (read-out: Ca IC50), 6.5 µg/mL; in the assay with MCF-7 it was 3.4 µg/mL (≈ 9.84 µM).
Regarding `CC(C)=CCC/C(C)=C/C[N+](C)(C)CCOC1C2CC3CC(C2)CC1C3.[I-]` (stereo not drawn) [compound 7], the results for the MIC (in the assay on M. tuberculosis; in [2]) were 0.78 µg/mL and 8 µg/mL, respectively. For the same compound, the IC50 with B. subtilis (read-out: Bs IC50) is 4.2 µg/mL; with E. coli (read-out: Ec IC50), 37 µg/mL; in the assay on S. cerevisiae (read-out: Sc IC50), 15 µg/mL; with C. albicans (read-out: Ca IC50), 18 µg/mL; in the assay on MCF-7, 3.2 µg/mL.
Regarding `CC(C)=CCC/C(C)=C/CNC(=O)COC1C2CC3CC(C2)CC1C3` (stereo not drawn) [compound 8], the figures for the MIC (in the assay with M. tuberculosis; in assay [2]) were 0.78 µg/mL (≈ 2.26 µM) and more than 120 µg/mL, respectively. For the same compound, the IC50 is more than 69 µg/mL in the assay with B. subtilis (read-out: Bs IC50); more than 200 µM in the assay with B. subtilis (setting [3]); more than 345 µg/mL in the assay with E. coli (read-out: Ec IC50); more than 1000 µM in the assay on E. coli (setting [6]); more than 69 µg/mL in the assay with S. cerevisiae (read-out: Sc IC50); more than 200 µM with S. cerevisiae (setting [4]). Further, the figures for the IC50 with C. albicans (read-out: Ca IC50), in the assay on C. albicans (setting [5]) and in the assay with MCF-7 were more than 69 µg/mL, more than 200 µM and 12 µg/mL (≈ 34.7 µM), respectively.
`CC(C)=CCC/C(C)=C/COCC(=O)NC1C2CC3CC(C2)CC1C3` (stereo not drawn) [compound 9]: the values for the MIC (in the assay on M. tuberculosis; in assay [2]) were 12 µg/mL (≈ 34.7 µM) and more than 120 µg/mL, respectively. The IC50 with B. subtilis (read-out: Bs IC50) is 17 µg/mL; in the assay on E. coli (read-out: Ec IC50) it was more than 345 µg/mL; in the assay with E. coli (setting [6]), more than 1000 µM; in the assay on S. cerevisiae (read-out: Sc IC50), more than 69 µg/mL; in the assay with S. cerevisiae (setting [4]), more than 200 µM; in the assay with C. albicans (read-out: Ca IC50), more than 69 µg/mL. Besides, the results for the IC50 with C. albicans (setting [5]) and with MCF-7 were more than 200 µM and 9.3 µg/mL (≈ 26.9 µM), respectively.
Take `CC(C)=CCC/C(C)=C/CNCCOC(C)(C)C` [compound 10]: the values for the MIC (with M. tuberculosis; in [2]) were 6.2 µg/mL (≈ 24.5 µM) and more than 16 µg/mL, respectively. Besides, the IC50 in the assay on B. subtilis (read-out: Bs IC50) is more than 50 µg/mL; in the assay on B. subtilis (setting [3]) it was more than 198 µM; in the assay on E. coli (read-out: Ec IC50) it was more than 126 µg/mL; in the assay with E. coli (setting [6]), more than 498 µM; in the assay with S. cerevisiae (read-out: Sc IC50), 44 µg/mL; with C. albicans (read-out: Ca IC50), more than 50 µg/mL. The IC50 in the assay with C. albicans (setting [5]) is more than 198 µM; in the assay with MCF-7, 45 µg/mL (≈ 178 µM).
Regarding `CC(C)=CCC/C(C)=C/CNCCOc1ccccc1` [compound 11], the MIC in the assay with M. tuberculosis came to 6.2 µg/mL (≈ 22.7 µM); in [2] it was 32 µg/mL (≈ 117 µM). Besides, the IC50 in the assay on B. subtilis (read-out: Bs IC50) worked out at 17 µg/mL; with E. coli (read-out: Ec IC50), 60 µg/mL; in the assay with S. cerevisiae (read-out: Sc IC50), 3 µg/mL; with C. albicans (read-out: Ca IC50), 20 µg/mL; in the assay with MCF-7 it was 6.3 µg/mL (≈ 23 µM).
Consider `CC(C)=CCC/C(C)=C/CNCCOc1cccc2ccccc12` [compound 12], for which the MIC is 6.2 µg/mL (≈ 19.2 µM) with M. tuberculosis and approximately 8 µg/mL (≈ 24.7 µM) in assay [2]. The IC50 in the assay with B. subtilis (read-out: Bs IC50) came out at 2.4 µg/mL; in the assay on E. coli (read-out: Ec IC50), 15 µg/mL; in the assay with S. cerevisiae (read-out: Sc IC50) it was 3.7 µg/mL; in the assay on C. albicans (read-out: Ca IC50), 12 µg/mL; with MCF-7, 7.1 µg/mL (≈ 21.9 µM).
In the case of `CC(C)=CCC/C(C)=C/CNCCO[C@@H]1C[C@@H]2CC[C@@]1(C)C2(C)C` [compound 13], the MIC in assay [2] was approximately 8 µg/mL (≈ 24 µM). In addition, the IC50 in the assay with B. subtilis (read-out: Bs IC50) is 1.8 µg/mL; in the assay with E. coli (read-out: Ec IC50) it was 12 µg/mL; in the assay with S. cerevisiae (read-out: Sc IC50), 1 to 3 µg/mL; in the assay with C. albicans (read-out: Ca IC50), 6.3 µg/mL; with MCF-7, 1.3 µg/mL (≈ 3.9 µM). Further, the “Sc IC50” value with S. cerevisiae came to 0.89 µg/mL. The “effect on pH gradient (ΔpH)” value in the assay on M. smegmatis cells, ΔpH is given as “collapsed”.
`CO[C@@H]1C[C@@H](C[C@H]2CC[C@H](C)[C@H]([C@@H](C)C(=O)O)O2)O[C@]2(O[C@](C)([C@H]3CC[C@@](C)([C@@H]4O[C@@H]([C@H]5O[C@@](O)(CO)[C@H](C)C[C@@H]5C)C[C@@H]4C)O3)C[C@H]2C)[C@@H]1C` [nigericin]: the “effect on pH gradient (ΔpH)” value in the assay with M. smegmatis cells, ΔpH is on record as “collapsed”.
On the same count and under the same terms, the result for `CC(C)[C@@H]1NC(=O)[C@H](C)OC(=O)[C@@H](C(C)C)NC(=O)[C@@H](C(C)C)OC(=O)[C@H](C(C)C)NC(=O)[C@H](C)OC(=O)[C@@H](C(C)C)NC(=O)[C@@H](C(C)C)OC(=O)[C@H](C(C)C)NC(=O)[C@H](C)OC(=O)[C@@H](C(C)C)NC(=O)[C@@H](C(C)C)OC1=O` [valinomycin] reads “no effect”.
